We go through 1 molecule from PMC6309939 (Pain, 2019).

The assay deals with human α4β3δ GABAA receptor (β3 subunit) (Homo sapiens, UniProt P28472). The assay can be described thus: two-electrode voltage clamp in oocytes, potentiation of GABA EC10 currents. Type of assay: cell-based.

The structures appear in SMILES notation.

Sequence of human α4β3δ GABAA receptor (β3 subunit) (P28472 26-473): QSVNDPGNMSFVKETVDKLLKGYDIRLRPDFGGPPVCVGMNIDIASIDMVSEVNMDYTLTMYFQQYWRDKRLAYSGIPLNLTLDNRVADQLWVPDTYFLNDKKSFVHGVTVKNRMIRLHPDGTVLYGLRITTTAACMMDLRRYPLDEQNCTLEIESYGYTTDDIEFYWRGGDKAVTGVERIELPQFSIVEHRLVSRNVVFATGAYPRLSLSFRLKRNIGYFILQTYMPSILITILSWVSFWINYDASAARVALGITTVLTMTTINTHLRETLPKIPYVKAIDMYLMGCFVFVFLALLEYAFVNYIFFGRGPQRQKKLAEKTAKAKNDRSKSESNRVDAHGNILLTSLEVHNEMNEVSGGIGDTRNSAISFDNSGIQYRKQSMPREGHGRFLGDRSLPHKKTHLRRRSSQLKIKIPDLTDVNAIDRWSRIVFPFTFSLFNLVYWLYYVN
Sequence of human α4β3δ GABAA receptor (β3 subunit) (P48169 36-554 partner): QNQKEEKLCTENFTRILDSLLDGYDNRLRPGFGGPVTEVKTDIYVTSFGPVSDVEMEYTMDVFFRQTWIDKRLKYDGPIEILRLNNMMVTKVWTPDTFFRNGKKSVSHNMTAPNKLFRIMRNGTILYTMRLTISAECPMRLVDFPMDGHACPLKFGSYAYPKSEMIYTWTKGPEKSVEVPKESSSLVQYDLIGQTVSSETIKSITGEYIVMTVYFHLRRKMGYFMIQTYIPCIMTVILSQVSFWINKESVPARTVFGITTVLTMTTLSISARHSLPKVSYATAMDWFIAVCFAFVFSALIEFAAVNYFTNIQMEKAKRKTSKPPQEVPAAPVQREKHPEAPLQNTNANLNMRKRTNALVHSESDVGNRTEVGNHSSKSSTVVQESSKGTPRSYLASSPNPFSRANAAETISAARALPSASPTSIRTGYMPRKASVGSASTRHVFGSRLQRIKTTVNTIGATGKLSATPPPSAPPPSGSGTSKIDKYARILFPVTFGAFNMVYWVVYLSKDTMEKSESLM
Sequence of human α4β3δ GABAA receptor (β3 subunit) (O14764 25-452 partner): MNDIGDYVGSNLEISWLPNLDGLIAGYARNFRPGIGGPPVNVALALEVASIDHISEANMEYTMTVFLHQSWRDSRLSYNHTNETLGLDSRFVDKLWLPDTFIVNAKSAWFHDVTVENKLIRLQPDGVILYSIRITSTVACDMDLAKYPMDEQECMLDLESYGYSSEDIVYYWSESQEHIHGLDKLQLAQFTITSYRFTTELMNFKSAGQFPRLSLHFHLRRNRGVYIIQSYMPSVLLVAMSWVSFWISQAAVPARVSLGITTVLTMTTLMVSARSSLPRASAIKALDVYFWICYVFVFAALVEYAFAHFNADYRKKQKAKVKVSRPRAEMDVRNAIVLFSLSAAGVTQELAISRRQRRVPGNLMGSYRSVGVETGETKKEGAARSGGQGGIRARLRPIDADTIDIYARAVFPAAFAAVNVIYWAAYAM

On to `CC(=O)[C@H]1CC[C@H]2[C@@H]3CC[C@H]4C[C@H](O)CC[C@]4(C)[C@H]3CC[C@]12C` [ALLO, allopregnanolone], for which the EC50 amounted to 520 nM.

For orientation: EC50 means the concentration at which the effect is half-maximal.
